# Reference: patent publication US20230000842A1, “METHODS OF TREATING CARTILAGE DISORDERS THROUGH INHIBITION OF CLK AND DYRK” (SAMUMED, LLC, priority 2019, published 2023)
# Columns and labels:
# [1] = test system: CLK mediated phosphorylation of SRSF4, 5, 6; experiment: Western blot of phospho-SRSF in hMSCs and human chondrocytes; type: cell-based; details: 1 hr, vs DMSO
# Method: Cells were plated at 300,000 cells per well in a 6-well plate and following an overnight incubation, treated with DMSO (vehicle control) or indicated compounds and incubated at 37° C. and 5% CO2 for the indicated times. Following treatment, cells were trypsinized and pelleted by centrifugation and washed with PBS. Total protein from the cell pellet was extracted or for fractionation, protein was fractionated into cytoplasmic and nuclear fractions using a Nuclear and Cytoplasmic Extraction Reagents (NE-PER™) kit containing Halt™ protease and phosphatase inhibitors (Thermo Fisher). Protein concentrations were quantified using the Pierce Micro BCA protein assay kit (Thermo Fisher). […] Blots were blocked with non-fat dry milk. Primary antibodies were incubated overnight at 4° C. β-actin and Lamin B1 were used as loading controls (Supplementary Table S2 for primary antibodies). Mouse and rabbit horseradish peroxidase (HRP)-conjugated secondary antibodies were diluted in 5% blocking buffer in TBS-T. Protein-antibody complexes were detected by chemiluminescence using the SuperSignal West Femto Chemiluminescent Substrate (Thermo Fisher) and images were captured with a UVP ChemiDocIt2 camera system (Fisher Scientific, Hampton, N.H.).
# [2] = test system: cartilage of MIA injected rats; experiment: Monosodium iodoacetate (MIA) injection induced OA model, cartilage Western blot; type: in vivo, rat; details: 4 days after single IA injection
# Method: Western blots for phospho-SRSF, SRSF1, AXIN2, phospho-NF-κB, total NFκB, phospho-STAT3, total STAT3, phospho-FOXO1 and total FOXO1 in the cartilage, with β-actin as a loading control.
# (§1) Male Sprague Dawley (SD) rats (250 g±30 g) (Charles River, Wilmington, Mass.) were used for all animal studies. All animals were treatment naïve at the start of the studies. Procedures were performed during the hours of 8 am-5 pm on weekdays in a sterile hood in the vivarium. Rats were housed in individual ventilated cages (≤3 per cage) under the following conditions:
# For cytokine, MMP, histology (H&E and Safranin O-Fast Green staining), OARSI scores and weight bearing measurements: At 10 weeks postnatal age, 20 rats were subjected to MIA injection (3 mg in 50 μL). Each rat was anesthetized with an isoflurane/O2 mixture until the flexor withdrawal reflex was abolished. The surgeon wore a face mask, hair net, lab coat and shoe covers, and gloves that were disinfected with betadine or chlorhexidine between animals. All tools were sterilized with an autoclave. MIA was dissolved in 0.9% (w/v) saline (3 mg in 50 μL). The solution was filtrated with 0.22 μm membrane before administration. After being shaved and disinfected with betadine or chlorhexidine solution, the right knees were injected intra-articularly with 50 μL of MIA using 0.5-in 26-gauge needle, while the contralateral knees received an IA injection of 0.9% saline. After injection, the injected surface was washed with sterile saline solution. All the rats were allowed to move freely in plastic cages until their necropsies at different time points post-MIA injection.
# On day 11, animals were sacrificed using Carbon dioxide (CO2). Cartilage was isolated, flash frozen in liquid Nitrogen and stored at −80° C. until processing for protein extraction.
# [3] = test system: cartilage of ACLT+pMMx rats; experiment: Surgery-induced OA model (ACLT+pMMx), cartilage analysis; type: in vivo, rat; details: cartilage at day 35
# Method: as §1
# For Nanostring analysis and qPCR: At 10 weeks postnatal age, 32 rats were subjected to severing of the anterior cruciate, medial collateral and medial meniscotibial ligaments (ACLT+pMMx). 8 rats (male, 10 weeks old) were untreated controls (Sham). Each rat was anesthetized with an isoflurane/O2 mixture until the flexor withdrawal reflex was abolished. The surgeon wore a face mask, hair net, lab coat and shoe covers, and gloves that were disinfected with betadine or chlorhexidine. Surgery tools were sterilized with an autoclave or bead sterilizer and disinfected between animals using a bead sterilizer. After being shaved and disinfected with betadine or chlorhexidine solution, the right knee joint was exposed through a medial para-patellar approach. The medical collateral ligament (MCL) was transected with surgical scalpels. The patella was dislocated laterally, and the knee was placed in full flexion followed by anterior cruciate ligament (ACL) transection with surgical scalpels. The medial meniscus (MM) was also partially transected. After surgery, the joint surface was washed with sterile saline solution, and the capsule was sutured using Vicryl 4-0 (Ethicon, Edinburgh, UK) absorbable suture. The skin was closed with 9 mm auto clips (Mikron precision INC, Gardena Calif.). Buprenorphine (0.5 mg/kg) was administered immediately after the surgery and daily for one-week post-surgery. All the surgery, rats were allowed to move freely in plastic cages until their necropsies. […] At the indicated timepoints, animals were sacrificed using Carbon dioxide (CO2). Cartilage was isolated, flash frozen in liquid Nitrogen and stored at −80° C. until processing for RNA extraction.
# At the indicated timepoints, animals were sacrificed using Carbon dioxide (CO2). Cartilage was isolated, flash frozen in liquid Nitrogen and stored at −80° C. until processing for protein extraction.
# [4] = test system: nuclear speckles in hMSCs and chondrocytes; experiment: Nuclear speckles assay (phospho-SC35 immunofluorescence); type: cell-based, human; details: 30 nM, 100 nM, 6 hrs, compared to DMSO
# Excerpt: Cells were stained with phospho-SC35 antibody (green) or DAPI nuclear stain (blue).
# After approximately 6 hrs, cells were fixed and stained with a phospho-SC35 antibody (Santa Cruz Biotechnology), followed by an Alexa-Fluor 488 secondary antibody (Thermo Fisher) and DAPI (Thermo Fisher). Cells were imaged at 100× magnification using the EVOS FL (Life Technologies, Carlsbad, Calif.).
# [5] = single IA injection 0.1 μg, 0.3 μg, 1 μg one-week post ACLT+pMMx, compared with vehicle
smiles,measurement,setting,value
CC(C)CC(=O)Nc1cncc(-c2ccc3[nH]nc(-c4nc5c(-c6cccc(F)c6)cncc5[nH]4)c3c2)c1 [compound 123],"CLK mediated phosphorylation of SRSF4, 5, 6",[1],dose-dependently inhibited
same,protein levels of total FOXO1,[2],increased
same,protein levels of total NF-κB,[2],decreased
same,total protein levels of SRSF1 and STAT3,[2],no changes
same,"phosphorylation of SRSF, NF-κB, STAT3, and FOXO1",[2]; compared to vehicle,decreased
same,number of Wnt pathway genes with decreased expression,"[3]; ACLT+pMMx rats, Nanostring",19 genes
same,number of Wnt pathway genes with increased expression,"[3]; ACLT+pMMx rats, Nanostring",at least 8 genes
same,"CLK2, DYRK1A, SRSF1, SRSF5, and SRSF6 expression",[3]; [5],decreased
same,"phospho-SRSF, SRSF1, AXIN2, TCF7, phospho-SIRT1, phospho-FOXO1, and phospho-STAT3 (Western blot)",[3]; [5],decreased
same,nuclear speckles (spliceosome modulation),[4],enlargement of nuclear speckles
